Laboratory results from US20210032257A1, “(E)-1-(4-(DIMETHYLAMINO)BUT-2-ENOYL)PYRROLIDIN-3-YL 4-((3-ISOPROPYL-5-METHYLPYRAZOLO[1,5-A]PYRIMIDIN-7-YL)AMINO)PIPERIDINE-1-CARBOXYLATE FOR INHIBITING CDK7” (Eli Lilly and Company, priority 2017, published 2021).

Legend:
Experiment in all cases: Biomarker study proliferation (CellTiter-Glo)
Format in all cases: cell-based
KYSE180 = tested on: KYSE180
Protocol: (§1) Cancer cell lines are profiled to evaluate the anti-proliferative activity of a test compound in-vitro. Mutation, copy number and gene expression information of ARID1A, KMT2C, KMT2D and/or RB1 genes across cancer cell lines is obtained from COSMIC database (cancer.sanger.ac.uk) and cBioportal (http://www.cbioportal.org/). Cells are cultured in growth medium and plated into a 96-well plate in 100 μL/well growth medium at 5000 cells/well then incubated at 37° C., 5% CO2 overnight. Cells are cultured using supplier recommended media and conditions well known in the art, for example with RPMI 1640 with or without HEPES & L-Glutamine (Thermo SH30255.01) and 1 mM Sodium Pyruvate, and 10% FBS(Gibco cat #10082). The 1000× intermediate dilution plate is prepared by making a 10 mM working solution of a test sample in DMSO and performing 1:3 dilutions in DMSO for 10 points. The 10× dosing plate is prepared by adding 2 μL from the 1000× intermediate dilution plate to 198 μL of OPTIMEM®+10% FBS and mixing well. The cell plate is then treated by adding 11 μL from the 10× dosing plate into the 100 μL/well cell plate for a 1× final concentration. Staurosporine is used as a maximum growth inhibition control at a final concentration of 5 μM. The cell plate is incubated for 7 days at 37° C., 5% CO2. Seven days after treatment, Cell Titer-Glo® (Promega cat #G7571) assay buffer and substrate are removed from −20° C. and allowed to equilibrate to RT. Assay buffer is added to the substrate and swirled gently to mix. The CELL TITER-GLO® reagent (100 μL/well) is added to the cell plate and incubated at RT for 15 minutes. After 15 minutes, luminescence is read using a plate reader. Data is analyzed in Excel and graphed in GraphPad Prism. Statistical analysis and p value is calculated using Mann-Whitney nonparameteric t tests using GraphPad Prism.
(§2) Anti-proliferative effects of a test compound are categorized as insensitive (IC50≥1 μM), cytostatic (IC50<1 μM and % inhibition <70%) or cytotoxic (IC50<1 μM and % inhibition ≥70%).

SNU869 = tested on: SNU869
Protocol: as §1, §2

HCC1806 = tested on: HCC1806
Protocol: as §1, §2

NCIH727 = tested on: NCIH727
Protocol: as §1, §2

MDAMB157 = tested on: MDAMB157
Protocol: as §1, §2

HCC1569 = tested on: HCC1569
Protocol: as §1, §2

NCIH1092 = tested on: NCIH1092
Protocol: as §1, §2

NCIH1666 = tested on: NCIH1666
Protocol: as §1, §2

NCIH520 = tested on: NCIH520
Protocol: as §1, §2

OVCAR8 = tested on: OVCAR8
Protocol: as §1, §2

NCIH1155 = tested on: NCIH1155
Protocol: as §1, §2

K562 = tested on: K562
Protocol: as §1, §2

DMS273 = tested on: DMS273
Protocol: as §1, §2

NCIH226 = tested on: NCIH226
Protocol: as §1, §2

KYSE520 = tested on: KYSE520
Protocol: as §1, §2

NCIH1703 = tested on: NCIH1703
Protocol: as §1, §2

COV318 = conditions: COV318, OVARY, 7 days
Protocol: as §1, §2

KP4 = tested on: KP4
Protocol: as §1, §2

[1] = 168 h, read-out: Anti-proliferation effect IC50

Compound: Cc1cc(NC2CCN(C(=O)O[C@H]3CCN(C(=O)/C=C/CN(C)C)C3)CC2)n2ncc(C(C)C)c2n1 [Example 1, [(3S)-1-[(E)-4-(dimethylamino)but-2-enoyl]pyrrolidin-3-yl] 4-[(3-isopropyl-5-methyl-pyrazolo[1,5-a]pyrimidin-7-yl)amino]piperidine-1-carboxylate]
- IC50 (KYSE180; Homo sapiens, KYSE-180, 168 h, read-out: Anti-proliferation effect IC50): 0.103 µM
- Anti-proliferation effect % Inh. (KYSE180; KYSE180, OESOPHAGUS, 7 days): 68%
- Anti-proliferation effect Outcome (KYSE180; KYSE180, OESOPHAGUS, 7 days): Cytostatic (cytostatic (IC50<1 μM and % inhibition <70%))
- IC50 (SNU869; [1]): 0.052 µM
- Anti-proliferation effect % Inh. (SNU869; SNU869, BILIARY, 7 days): 60%
- Anti-proliferation effect Outcome (SNU869; SNU869, BILIARY, 7 days): Cytostatic (cytostatic (IC50<1 μM and % inhibition <70%))
- Anti-proliferation effect % Inh. (HCC1806; HCC1806, BREAST, 7 days): 99%
- Anti-proliferation effect Outcome (HCC1806; HCC1806, BREAST, 7 days): Cytotoxic (cytotoxic (IC50<1 μM and % inhibition ≥70%))
- IC50 (HCC1806; Homo sapiens, HCC1806, 168 h, read-out: Anti-proliferation effect IC50): 0.014 µM
- IC50 (NCIH727; Homo sapiens, NCI-H727, 168 h, read-out: Anti-proliferation effect IC50): 0.117 µM
- Anti-proliferation effect % Inh. (NCIH727; NCIH727, LUNG, 7 days): 56%
- Anti-proliferation effect Outcome (NCIH727; NCIH727, LUNG, 7 days): Cytostatic (cytostatic (IC50<1 μM and % inhibition <70%))
- IC50 (MDAMB157; Homo sapiens, MDA-MB-157, 168 h, read-out: Anti-proliferation effect IC50): 0.866 µM
- Anti-proliferation effect % Inh. (MDAMB157; MDAMB157, BREAST, 7 days): 39%
- Anti-proliferation effect Outcome (MDAMB157; MDAMB157, BREAST, 7 days): Cytostatic (cytostatic (IC50<1 μM and % inhibition <70%))
- Anti-proliferation effect % Inh. (HCC1569; HCC1569, BREAST, 7 days): 45%
- Anti-proliferation effect Outcome (HCC1569; HCC1569, BREAST, 7 days): Cytostatic (cytostatic (IC50<1 μM and % inhibition <70%))
- IC50 (HCC1569; Homo sapiens, HCC1569, 168 h, read-out: Anti-proliferation effect IC50): 0.067 µM
- IC50 (NCIH1092; Homo sapiens, NCI-H1092, 168 h, read-out: Anti-proliferation effect IC50): 0.683 µM
- Anti-proliferation effect % Inh. (NCIH1092; NCIH1092, LUNG, 7 days): 42%
- Anti-proliferation effect Outcome (NCIH1092; NCIH1092, LUNG, 7 days): Cytostatic (cytostatic (IC50<1 μM and % inhibition <70%))
- IC50 (NCIH1666; Homo sapiens, NCI-H1666, 168 h, read-out: Anti-proliferation effect IC50): 0.161 µM
- Anti-proliferation effect % Inh. (NCIH1666; NCIH1666, LUNG, 7 days): 59%
- Anti-proliferation effect Outcome (NCIH1666; NCIH1666, LUNG, 7 days): Cytostatic (cytostatic (IC50<1 μM and % inhibition <70%))
- IC50 (NCIH520; Homo sapiens, NCI-H520, 168 h, read-out: Anti-proliferation effect IC50): 0.082 µM
- Anti-proliferation effect % Inh. (NCIH520; NCIH520, LUNG, 7 days): 77%
- Anti-proliferation effect Outcome (NCIH520; NCIH520, LUNG, 7 days): Cytotoxic (cytotoxic (IC50<1 μM and % inhibition ≥70%))
- IC50 (OVCAR8; Homo sapiens, OVCAR-8, 168 h, read-out: Anti-proliferation effect IC50): 0.065 µM
- Anti-proliferation effect % Inh. (OVCAR8; OVCAR8, OVARY, 7 days): 90%
- Anti-proliferation effect Outcome (OVCAR8; OVCAR8, OVARY, 7 days): Cytotoxic (cytotoxic (IC50<1 μM and % inhibition ≥70%))
- IC50 (NCIH1155; Homo sapiens, NCI-H1155, 168 h, read-out: Anti-proliferation effect IC50): 0.043 µM
- Anti-proliferation effect % Inh. (NCIH1155; NCIH1155, LUNG, 7 days): 51%
- Anti-proliferation effect Outcome (NCIH1155; NCIH1155, LUNG, 7 days): Cytostatic (cytostatic (IC50<1 μM and % inhibition <70%))
- IC50 (K562; Homo sapiens, K562, 168 h, read-out: Anti-proliferation effect IC50): > 10 µM
- Anti-proliferation effect % Inh. (K562; K562, BLOOD, 7 days): −191%
- Anti-proliferation effect Outcome (K562; K562, BLOOD, 7 days): Insensitive (insensitive (IC50≥1 μM))
- Anti-proliferation effect % Inh. (DMS273; DMS273, LUNG, 7 days): 80%
- Anti-proliferation effect Outcome (DMS273; DMS273, LUNG, 7 days): Cytotoxic (cytotoxic (IC50<1 μM and % inhibition ≥70%))
- IC50 (DMS273; Homo sapiens, DMS-273, 168 h, read-out: Anti-proliferation effect IC50): 0.019 µM
- IC50 (NCIH226; Homo sapiens, NCI-H226, 168 h, read-out: Anti-proliferation effect IC50): 1.2 µM
- Anti-proliferation effect % Inh. (NCIH226; NCIH226, LUNG, 7 days): 43%
- Anti-proliferation effect Outcome (NCIH226; NCIH226, LUNG, 7 days): Insensitive (insensitive (IC50≥1 μM))
- IC50 (KYSE520; Homo sapiens, KYSE-520, 168 h, read-out: Anti-proliferation effect IC50): > 10 µM
- Anti-proliferation effect % Inh. (KYSE520; KYSE520, OESOPHAGUS, 7 days): 50%
- Anti-proliferation effect Outcome (KYSE520; KYSE520, OESOPHAGUS, 7 days): Insensitive (insensitive (IC50≥1 μM))
- IC50 (NCIH1703; Homo sapiens, NCI-H1703, 168 h, read-out: Anti-proliferation effect IC50): 0.04 µM
- Anti-proliferation effect % Inh. (NCIH1703; NCIH1703, LUNG, 7 days): 92%
- Anti-proliferation effect Outcome (NCIH1703; NCIH1703, LUNG, 7 days): Cytotoxic (cytotoxic (IC50<1 μM and % inhibition ≥70%))
- IC50 (COV318; [1]): > 10 µM
- Anti-proliferation effect % Inh. (COV318): 40%
- IC50 (KP4; Homo sapiens, KP-4, 168 h, read-out: Anti-proliferation effect IC50): 0.036 µM
- Anti-proliferation effect % Inh. (KP4; KP4, PANCREAS, 7 days): 65%
- Anti-proliferation effect Outcome (KP4; KP4, PANCREAS, 7 days): Cytostatic (cytostatic (IC50<1 μM and % inhibition <70%))
